Results reported in PMC9266004, “Potential Common Mechanisms of Cytotoxicity Induced by Amide Herbicides via TRPA1 Channel Activation” (International Journal of Environmental Research and Public …, 2022).

Tests used:
[1] = system: TRPA1-KO A549 cells; assay: CCK-8 cell viability assay in TRPA1-KO A549 cells; type: cell-based, human; conditions: for IC50: Homo sapiens, TRPA1-KO A549 cells, 24 h treatment, CCK-8, read-out: IC50 values of AHs, TRPA1-KO A549 Cells; for viability of TRPA1-KO A549 cells compared with AHs-treated WT cells: KO of TRPA1, AHs 150, 300, 600 μM
Experimental: The hTRPA1 gene sequence (Gene ID: 8989) was obtained from the National Center for Biotechnology Information (NCBI) website (https://www.ncbi.nlm.nih.gov/gene/8989 accessed on 26 May 2022). Three gRNA sequences, namely, T1: 5′-[…]-[…], T16: 5′-[…]-3′, and T20: 5′-[…]-3′, were designed using the CRISPR online design tool (http://crispr.mit.edu/ accessed on 26 May 2022). Transfection of cells with gRNA-Cas9 was validated in test cells. Cell pool examination was performed using Sanger sequencing. Sequencing and tracer analysis were performed using the online tool TIDE (https://tide-calculator.nki.nl/ accessed on 26 May 2022) to investigate the cleavage efficiency of T1, T16, and T20. Cells from the cell pool were diluted in 96-well plates. Clones were observed under a microscope and wells containing single cell clones were labeled. Single cell clones were transferred to 24-well plates for expansion. Validation of knockout (KO) clones was performed via sequencing to confirm insertion and deletion on the genomes of KO clone candidates. Furthermore, mycoplasmas were detected for cloned cells with high KO using the Mycoplasma PCR Detection Kit.
(§1) Wild-type (WT) and TRPA1-KO A549 cells were cultured in McCoy’s 5A Media and F-12K Nutrient Mixture containing 10% fetal bovine serum, respectively. WT/TRPA1-KO A549 cells (5 × 10^4 cells/mL) were seeded in 96-well (100 μL/well) and 6-well (2 mL/well) plates and incubated at 37 °C with 5% CO2 in a humidified incubator for 24 h. WT/TRPA1-KO A549 cells were treated with AHs gradient concentrations (0, 150, 300, 600, 1200 μM) prepared in methanol (1.2 M) for 24 h. Additionally, WT/TRPA1-KO A549 cells were pre-treated with TRPA1 special inhibitor HC-030031 (100 μM) for 0.5 h and then treated with AHs gradient concentrations for 24 h.
To conduct the cell viability assay, the growth medium was removed from WT/TRPA1-KO A549 cells cultured in a 96-well plate. CCK-8 reagent was mixed with complete medium (1:9 volume ratio), and 100 µL of the CCK-8 reagent mixture was added to each well. The plate was incubated for 4 h and the absorbance was measured at 450 nm using a microplate reader (BNR05740; Molecular Devices, Sunnyvale, CA, USA). The average absorbance from each sextuplicate set of wells was calculated and the background control value was subtracted from each absorbance value. The percentage cell viability was determined using the following equation:cell viability (%) = [(As − Ab)/(Ac − Ab)] × 100% where As is the absorbance of the experimental well (containing medium, CCK-8 reagent, cells, and compound); Ac is the absorbance of the control well (containing medium, CCK-8 reagent, and cells); and Ab is the absorbance of the blank well (containing medium and CCK-8 reagent).

[2] = system: A549 cells; assay: LDH cytotoxicity assay; type: cell-based, human; conditions: 150, 300, 600, 1200 μM, 24 h
Experimental: as §1
Using the Cytotoxicity LDH Assay Kit, lysis buffer (10 μL) was added to the high control well of a 96-well plate containing WT/TRPA1-KO A549 cells, which was then incubated for 0.5 h. Working solution was prepared by adding 5 mL assay buffer to the dye mixture vial, of which 100 μL was added to each well. The plate was protected from light and incubated at room temperature for 0.5 h. Subsequently, 50 μL stop solution was added to each well and the absorbance was measured immediately at 490 nm using a microplate reader (BNR05740, Molecular Devices). The average absorbance was calculated from each sextuplicate set of wells and the background control value was subtracted from each absorbance value. The percentage cytotoxicity was determined using the following equation:cytotoxicity (%) = [(Aa − Ab1)/(Ab2 − Ab1)] × 100% where Aa is the absorbance of the experimental well (containing medium, cells, and compound); Ab2 is the absorbance of the high control well (containing medium, cells, and lysis buffer); and Ab1 is the absorbance of the low control well (containing medium and cells).

[3] = system: zebrafish embryos; conditions: cited from earlier work

Row | SMILES | IC50 [1] | viability of TRPA1-KO A549 cells compared with AHs-treated WT cells [1] | cell damage (LDH) compared with 0 μM AHs [2] | toxic effects [3]
1 | CCc1cccc(C)c1N(C(=O)CCl)C(C)COC (stereo not shown) [Metolachlor, metolachlor] | 0.562 mM | significantly increased the viability | significantly increased cell damage | 
2 | CCCOCCN(C(=O)CCl)c1c(CC)cccc1CC [Pretilachlor, pretilachlor] | 3.67 mM | significantly increased the viability | significantly increased cell damage | endocrine disorder, cell apoptosis, and immunotoxicity
3 | CCC(=O)Nc1ccc(Cl)c(Cl)c1 [Propanil, propanil] | 2.56 mM | significantly increased the viability | significantly increased cell damage | 
